The target in one assay is T1, 5-HT1A (Homo sapiens, UniProt P08908).
T1 sequence (P08908 1-422): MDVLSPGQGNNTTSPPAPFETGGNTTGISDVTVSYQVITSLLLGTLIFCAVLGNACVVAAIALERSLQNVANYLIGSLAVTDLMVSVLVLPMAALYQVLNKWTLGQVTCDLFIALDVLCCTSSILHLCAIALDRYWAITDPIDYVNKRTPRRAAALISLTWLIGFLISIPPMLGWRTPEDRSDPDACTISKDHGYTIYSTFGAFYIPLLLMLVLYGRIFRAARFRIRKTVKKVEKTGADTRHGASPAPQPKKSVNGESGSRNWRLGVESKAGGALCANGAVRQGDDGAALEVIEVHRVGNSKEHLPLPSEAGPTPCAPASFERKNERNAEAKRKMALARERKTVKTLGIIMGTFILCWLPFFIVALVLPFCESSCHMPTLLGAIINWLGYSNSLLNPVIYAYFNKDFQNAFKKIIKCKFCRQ
Nature of the assay: receptor affinity. As to conditions: listed both as high and as moderate affinity. Type of assay: binding.

Assay [1] deals with selected dopaminergic, serotoninergic, and adrenergic receptors. The assay can be described thus: functional action at receptors. It counts as biochemical.
For a further assay, the target named is D3 (Homo sapiens, UniProt P35462). Nature of the assay: receptor affinity. It counts as binding. As to conditions: high affinity.
For another assay, the target named is Nea1. Nature of the assay: receptor affinity. It counts as binding. As to conditions: high affinity.
For assay [2], the target named is other dopaminergic, adrenergic, and serotoninergic receptors. The assay can be described thus: receptor affinity. Type of assay: binding. The conditions noted are these: moderate affinity.
The target of the next assay is T2, Nea2c (Homo sapiens, UniProt P18825).
T2 sequence (P18825 1-462): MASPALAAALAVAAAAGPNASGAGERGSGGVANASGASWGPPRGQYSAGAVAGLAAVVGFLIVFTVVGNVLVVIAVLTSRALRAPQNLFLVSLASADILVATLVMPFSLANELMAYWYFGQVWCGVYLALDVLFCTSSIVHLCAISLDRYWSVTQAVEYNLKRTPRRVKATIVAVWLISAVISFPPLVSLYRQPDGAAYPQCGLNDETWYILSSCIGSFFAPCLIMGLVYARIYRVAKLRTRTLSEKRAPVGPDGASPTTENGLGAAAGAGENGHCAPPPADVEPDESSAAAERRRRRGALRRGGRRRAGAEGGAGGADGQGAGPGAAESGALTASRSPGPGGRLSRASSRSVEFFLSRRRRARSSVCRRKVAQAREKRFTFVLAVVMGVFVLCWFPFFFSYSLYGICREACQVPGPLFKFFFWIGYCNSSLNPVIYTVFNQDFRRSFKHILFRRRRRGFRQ
Nature of the assay: receptor affinity. It counts as binding. As to conditions: high affinity.

Where “and” joins values, the source holds several entries; their conditions need not be identical. Identical values can stand only once.

Sequence of D3 (P35462 whole entry): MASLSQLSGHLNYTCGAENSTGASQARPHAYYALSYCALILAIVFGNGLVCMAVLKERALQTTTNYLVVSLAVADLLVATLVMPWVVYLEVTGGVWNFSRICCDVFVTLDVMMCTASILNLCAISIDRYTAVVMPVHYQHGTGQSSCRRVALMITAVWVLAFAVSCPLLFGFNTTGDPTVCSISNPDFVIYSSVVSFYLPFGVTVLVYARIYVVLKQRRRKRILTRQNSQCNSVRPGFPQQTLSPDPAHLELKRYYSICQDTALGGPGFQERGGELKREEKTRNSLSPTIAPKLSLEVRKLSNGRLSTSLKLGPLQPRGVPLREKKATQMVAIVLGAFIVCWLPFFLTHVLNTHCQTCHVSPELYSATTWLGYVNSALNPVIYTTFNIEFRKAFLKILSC

Turning to `COc1cc(C(C)=O)ccc1OCCCN1CCC(c2noc3cc(F)ccc23)CC1` [Iloperidone, 1-[4-[3-[4-(6-flouro-1,2-benzisoxazol-3-yl)-1-piperidinyl]propoxy]-3-methoxyphenyl]ethanone], the Kd at 5-HT1A is < 0.01 µM and 0.01 to 0.1 µM; at D3, less than 0.01 µM; on Nea1 it was less than 0.01 µM; in assay [2] it was 0.01 to 0.1 µM; at Nea2c, less than 0.01 µM. For the same molecule, in assay [1], the “mode of action at receptors” value is on record as “antagonist”.

One may read the Kd as a measure of binding affinity in units of concentration. Higher therefore signals a looser complex.

Values taken from patent US20090306137A1, “TREATMENT FOR DEPRESSIVE DISORDERS” (priority 2006, published 2009).
